# According to US20260217701A1, “SELECTIVE BET INHIBITORS AND USES THEREOF” (Tay Therapeutics Limited, priority 2022, published 2026):
# Several values for one entry are separate records, joined by “and”; a condition that tells them apart may be missing. Identical values can stand only once.
# Experiment: Rat PK study #1 (Compound A PO, methylcellulose vs propylene glycol formulation)
# Assay type: in vivo, Lewis rats
# Protocol: For the first rat pharmacokinetic study, the pharmacokinetics of Compound A were assessed in male Lewis rats. Compound A was prepared in two different formulations (1% methylcellulose and 20% propylene glycol/20% Vitamin E/60% water) according to Table 3A (see Tables 2A and 2D for formulations). The formulations were made fresh prior to use. Animals were divided into two groups based on the compound formulation (n=3/group). The Compound A solutions were administered to animals orally (PO) and animals were then monitored over a 24 h period.
# Blood samples (~0.2 mL) were collected according to a schedule (0.083, 0.25, 0.5, 1, 2, 4, 8, and 24 h following the initial dosing) via the jugular vein by cannulation and EDTA-K2 was used as anticoagulant. Within 30 minutes of collection, the samples were centrifuged at approximately 4000 times g-force for 5 minutes at 4° C. to obtain blood plasma. The plasma samples were immediately divided into two aliquots (~75 μL each), transferred to a cryogenic vial, and stored in a freezer at −75±15° C. prior to analysis.
# The concentration of Compound A in plasma samples was determined by liquid chromatography-mass spectrometry (LC-MS/MS) using a Shimadzu HPLC (DGU-20A5R; LC-30AD; SIL-30AC; Rack changer II; CTO-31A; and CBM-20A) and an AB API 5500 LC/MS/MS instrument. Samples were analyzed on an Agilent Poroshell 120 EC-C18 4 μm (50×2.1 mm) column. Solution A in the mobile phase was 95% water (0.1% formic acid) and solution B was 95% acetonitrile in water (0.1% formic acid), injection volume was 3 μL, and flow rate was 0.6 mL/min.
# To prepare samples for analysis, serial concentrations were prepared by diluting the stock solution of analyte with a 50% acetonitrile in water solution. 5 μL working solutions (5, 10, 20, 50, 100, 500, 1000, 5000, and 10000 ng/ml) were added to 50 μL of the blank Lewis rat plasma to achieve calibration standards of ~0.5 to 1000 ng/ml (0.5, 1, 2, 5, 10, 50, 100, 500, and 1000 ng/ml) in a total volume of 55 μL. Five quality control samples at 1 ng/ml, 2 ng/ml, 5 ng/mL, 50 ng/mL, and 800 ng/mL for plasma were prepared independently of those used for the calibration curves. These QC samples were prepared on the day of analysis in the same way as calibration standards.
# 55 μL of standards, 55 μL of QC samples and 55 μL of unknown samples (50 μL of unknown rat plasma with 5 μL of blank solution) were added to 200 μL of acetonitrile containing internal standard (IS; verapamil) mixture for precipitating protein respectively. The samples were then vortexed for 30 s. After centrifugation at 4° C., 3900 rpm for 15 min, the supernatant was diluted 3 times with water. 3 μL of diluted supernatant was injected into the LC/MS/MS system for quantitative analysis.
# [1] = Lewis rats, PO 10 mg/kg, 1% methylcellulose formulation, individual animals, 10 mg/kg
# [2] = Lewis rats, PO 10 mg/kg, 1% methylcellulose formulation, mean of 3 animals
# [3] = Lewis rats, PO 10 mg/kg, propylene glycol/Vitamin E TPGS/water formulation, individual animals, 10 mg/kg
# [4] = Lewis rats, PO 10 mg/kg, propylene glycol/Vitamin E TPGS/water formulation, mean of 3 animals
compound,measurement,setting,value
"Cn1cc(-c2ccccc2)c(-c2cn(C)c(=O)c3[nH]c(-c4cnn(C(F)(F)F)c4)cc23)cc1=O [Compound A, 6-methyl-4-(1-methyl-2-oxo-5-phenyl-1,2-dihydropyridin-4-yl)-2-(1-(trifluoromethyl)-1H-pyrazol-4-yl)-1,6-dihydro-7H-pyrrolo[2,3-c]pyridin-7-one]",Plasma Concentration,"Lewis rats, PO 10 mg/kg, 1% methylcellulose formulation, 0.083 h, individual animals",0.00 ng/mL
same,Plasma Concentration,"Lewis rats, PO 10 mg/kg, 1% methylcellulose formulation, 0.083 h, mean of 3 animals",BLOQ
same,Plasma Concentration,"Lewis rats, PO 10 mg/kg, 1% methylcellulose formulation, 0.25 h, individual animals, 10 mg/kg",1.37 ng/mL and 0.868 ng/mL and 0.603 ng/mL
same,Plasma Concentration,"Lewis rats, PO 10 mg/kg, 1% methylcellulose formulation, 0.5 h, individual animals, 10 mg/kg",9.07 ng/mL and 4.15 ng/mL and 2.89 ng/mL
same,Plasma Concentration,"Lewis rats, PO 10 mg/kg, 1% methylcellulose formulation, 1 h, individual animals, 10 mg/kg",10.7 ng/mL and 12.2 ng/mL
same,Plasma Concentration,"Lewis rats, PO 10 mg/kg, 1% methylcellulose formulation, 2 h, individual animals, 10 mg/kg",21.6 ng/mL and 22.7 ng/mL
same,Plasma Concentration,"Lewis rats, PO 10 mg/kg, 1% methylcellulose formulation, 4 h, individual animals, 10 mg/kg",49.2 ng/mL and 43.1 ng/mL
same,Plasma Concentration,"Lewis rats, PO 10 mg/kg, 1% methylcellulose formulation, 8 h, individual animals, 10 mg/kg",29.3 ng/mL and 67.3 ng/mL and 50.6 ng/mL
same,Plasma Concentration,"Lewis rats, PO 10 mg/kg, 1% methylcellulose formulation, 24 h, individual animals, 10 mg/kg",0.996 ng/mL and 1.52 ng/mL and 5.80 ng/mL
same,AUClast,[1],875 ng·h/mL and 726 ng·h/mL
same,AUClast/D,[1],48.0 mg·h/mL and 87.5 mg·h/mL and 72.6 mg·h/mL
same,Cmax,[1],67.3 ng/mL and 50.6 ng/mL
same,F,[1],2.51% and 4.57% and 3.79%
same,AUClast/D,[2],69.4 mg·h/mL
same,F,[2],3.62%
same,Plasma Concentration,"Lewis rats, PO 10 mg/kg, propylene glycol/Vitamin E TPGS/water formulation, 0.083 h, individual animals, 10 mg/kg",3.72 ng/mL and 4.36 ng/mL
same,Plasma Concentration,"Lewis rats, PO 10 mg/kg, propylene glycol/Vitamin E TPGS/water formulation, 0.25 h, individual animals, 10 mg/kg",39.8 ng/mL and 47.2 ng/mL
same,Plasma Concentration,"Lewis rats, PO 10 mg/kg, propylene glycol/Vitamin E TPGS/water formulation, 0.5 h, individual animals, 10 mg/kg",134 ng/mL
same,Plasma Concentration,"Lewis rats, PO 10 mg/kg, propylene glycol/Vitamin E TPGS/water formulation, 1 h, individual animals, 10 mg/kg",264 ng/mL and 263 ng/mL
same,Plasma Concentration,"Lewis rats, PO 10 mg/kg, propylene glycol/Vitamin E TPGS/water formulation, 2 h, individual animals, 10 mg/kg",375 ng/mL and 424 ng/mL
same,Plasma Concentration,"Lewis rats, PO 10 mg/kg, propylene glycol/Vitamin E TPGS/water formulation, 4 h, individual animals, 10 mg/kg",316 ng/mL and 437 ng/mL
same,Plasma Concentration,"Lewis rats, PO 10 mg/kg, propylene glycol/Vitamin E TPGS/water formulation, 8 h, individual animals, 10 mg/kg",156 ng/mL and 145 ng/mL
same,Plasma Concentration,"Lewis rats, PO 10 mg/kg, propylene glycol/Vitamin E TPGS/water formulation, 24 h, individual animals, 10 mg/kg",12.6 ng/mL and 12.5 ng/mL
same,AUC_%Extrap_obs,"Lewis rats, PO 10 mg/kg, propylene glycol/Vitamin E TPGS/water formulation, individual animals",2.25%
same,AUClast,[3],3428 ng·h/mL and 3755 ng·h/mL
same,Cmax,[3],375 ng/mL and 437 ng/mL
same,F,[3],25.8% and 17.1% and 19.6%
same,AUClast/D,[4],404
same,F,[4],20.8%
same,Clinical observations,"both formulations, PO, 24 h",no recorded clinical observations
same,"plasma concentration, propylene glycol-based vs methylcellulose-based formulation","male Lewis rats, PO, same dose",approximately 10 fold
same,concentration at 0.083 h,"male, Lewis, rat, plasma, po, 10 mg/kg, Lewis rats, PO 10 mg/kg, 1% methylcellulose formulation, 0.083 h, individual animals",0 ng/mL
same,concentration at 0.25 h,"male, Lewis, rat, plasma, po, 10 mg/kg, Lewis rats, PO 10 mg/kg, 1% methylcellulose formulation, 0.25 h, mean of 3 animals",0.95 ng/mL
same,concentration at 0.5 h,"male, Lewis, rat, plasma, po, 10 mg/kg, Lewis rats, PO 10 mg/kg, 1% methylcellulose formulation, 0.5 h, mean of 3 animals",5.37 ng/mL
same,concentration at 1 h,"male, Lewis, rat, plasma, po, 10 mg/kg, Lewis rats, PO 10 mg/kg, 1% methylcellulose formulation, 1 h, individual animals",17.1 ng/mL
same,concentration at 1 h,"male, Lewis, rat, plasma, po, 10 mg/kg, Lewis rats, PO 10 mg/kg, 1% methylcellulose formulation, 1 h, mean of 3 animals",13.3 ng/mL
same,concentration at 2 h,"male, Lewis, rat, plasma, po, 10 mg/kg, Lewis rats, PO 10 mg/kg, 1% methylcellulose formulation, 2 h, individual animals",25.5 ng/mL
